The term remaining activity denotes the share of the control activity or signal that is left under treatment.

The target of assay [1] is T1, purified 5-LO (Homo sapiens, UniProt P09917).
T1 sequence (P09917 1-674): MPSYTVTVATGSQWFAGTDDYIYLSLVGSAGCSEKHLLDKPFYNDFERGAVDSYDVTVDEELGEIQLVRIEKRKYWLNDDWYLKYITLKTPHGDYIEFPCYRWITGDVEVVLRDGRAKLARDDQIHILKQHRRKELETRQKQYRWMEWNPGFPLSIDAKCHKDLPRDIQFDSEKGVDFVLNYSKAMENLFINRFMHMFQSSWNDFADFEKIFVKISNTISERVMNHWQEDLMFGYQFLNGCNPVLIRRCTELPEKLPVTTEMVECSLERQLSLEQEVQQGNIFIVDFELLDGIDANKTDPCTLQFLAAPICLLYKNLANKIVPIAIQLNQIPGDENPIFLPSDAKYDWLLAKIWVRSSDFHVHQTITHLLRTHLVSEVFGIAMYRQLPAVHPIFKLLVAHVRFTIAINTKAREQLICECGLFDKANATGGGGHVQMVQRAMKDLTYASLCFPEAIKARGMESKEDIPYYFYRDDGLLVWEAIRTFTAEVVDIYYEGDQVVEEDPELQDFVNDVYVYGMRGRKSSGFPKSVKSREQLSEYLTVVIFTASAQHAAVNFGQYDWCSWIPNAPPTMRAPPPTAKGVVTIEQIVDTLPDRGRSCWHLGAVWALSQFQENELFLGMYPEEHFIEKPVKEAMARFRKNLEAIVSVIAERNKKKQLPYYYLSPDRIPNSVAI
Briefly: Purified / human recombinant 5-LO activity (cell-free). Format: biochemical. The settings on record: purified 5-LO under cell free conditions; mean ± SE, n = 3-4; read-out: Inhibition of purified 5-LO activity IC50 (µM) cell-free. The protocol:
(§1) Cell based and cell-free assays carried out in biological studies, immunofluorescence microscopy analysis and zymosan-induced peritonitis in mice are performed as described hereinabove (Pegola, C. and et al., British J. Pharmacology, 2014, D01:10.1111/bph.12625). In the cell based assays (intact neutrophils or monocytes), 5-LO mediated product formation is started, after pre-incubation with test compounds (or control DMSO) for 15 min. at 37 °C, with addition of Ca-ionophore A23187 (2.5 µM) to the fresh 5 x 10^6 neutrophils or monocytes suspended in 1 ml of PGC buffer (phosphate buffered saline (PBS) solution containing 1 mg ml^-1 glucose and 1mM CaCl2, pH 7.4). After the incubation for 10 min. at 37 °C, the reaction is ended with addition of 1 ml of methanol, and 30 µL 1 N HCl, 200 ng prostaglandin B1 and 500 µL PBS are added to the mixture. In cell-free assays (isolated 5-LO and cell homogenates), human recombinant 5-LO protein or 40,000g supernatant is added to 1 ml of 5-LO reaction mixture (PBS, pH 7.4, 1 mM EDTA, 1 mM ATP), and then incubated with test compounds (or control DMSO) for 10 min. at 4°C, heated to 37 °C and 2 mM CaCl2 as well as AA at certain concentrations are added. The reaction is ended as described for the cell-based assays. Resulting 5-LO mediated products are extracted and analysed by the known method of high pressure liquid chromatography (HPLC) (Pergola, C. Proc Natl. Acad. Sci. U.S.A. 2008, 105, 19881). 5-LO mediated product formation (LTB4 and all trans isomers, and 5 (S)-hydro(pero)xy-6-trans-8, 11, 14-cis-eicosatetraenoic acid, 5-H(p)ETE) is expressed as ng per 10^6 cell. Cysteinyl-LTs have not been analyzed because that the amount of C4, D4 and E4 and LTB4 oxidation products are below the detection limit.
(§2) Compounds were tested in intact human neutrophils stimulated with 2.5 µM A23187 under cell based conditions and on purified 5-LO under cell free conditions. ^aData are given as remaining activity as a percentage of control (100%) at 10 µM or 1 µM inhibitor concentrations (means ± SE, n = 3-6).
9hj was added 15 min before addition of 2 mM Ca^2+ plus 3 µM, 10 µM and 30 µM AA. 100% controls correspond to 200.35 ng mL^-1 for 3 µM AA, 514.36 ng mL^-1 for 10 µM AA and 537.73 ng mL^-1 for 30 µM AA.

Assay [2] concerns the target T1, purified 5-LO. Described as above. The assay is classed as biochemical. The conditions noted are these: remaining 5-LO activity (percentage of uninhibited control) at 30 µM test compound.
Assay [3] has as its system 5-LO mediated product formation. As to the kind of experiment: 5-LO mediated product formation in intact neutrophils stimulated with A23187 (cell-based). The conditions noted are these: for IC50: Neutrophil, intact human neutrophils stimulated with 2.5 µM A23187, mean ± SE, n = 3-4, read-out: Inhibition of purified 5-LO activity IC50 (µM) cell based; for activity at 1 µM / activity at 10 µM: PMNL, human neutrophils, 2.5 µM A23187, means ± SE, n = 3-6; for activity at 1 µM: remaining activity at 1 µM inhibitor, read-out: 5-LO mediated product formation in intact neutrophils (PMNL) (% of control) at 1 µM; for activity at 10 µM: remaining activity at 10 µM inhibitor, read-out: 5-LO mediated product formation in intact neutrophils (PMNL) (% of control) at 10 µM. On the set-up: species or system human. The protocol: as §1, §2
Compound 9hj inhibited 5-LO mediated product formation with IC50 of 60 nM in human neutrophils. Neutrophils are stimulated with Ca-ionophore A23187 (2.5 µM), without the addition of exogenous arachidonic acid (AA), after pre-incubation with 9hj or vehicle (0.1 % DMSO). 100% controls correspond to 275.7 ng mL^-1 of 5-LO mediated products (Figure 1).
100% controls correspond to 328.97 ng mL^-1 of 5-LO mediated products.

The target in assay [4] is T1, purified 5-LO. The conditions noted are these: literature value, Banoglu et al. Bioorg. Med. Chem. 2012, 20, 3728; read-out: IC50cell-free; cited from earlier work.
The subject of assay [5] is 5-LO mediated product formation. The settings on record: literature value, Banoglu et al. Bioorg. Med. Chem. 2012, 20, 3728; read-out: IC50PMNL (cell-based assay); cited from earlier work.

Structures are written as SMILES. Where two headings read alike, the source gives them in different places. Where only a bound is given, the exact number is not on record here.

On to `Cc1cc(OCc2ccccc2Cl)ccc1-c1onc(C(=O)O)c1-c1ccc(Cl)cc1` [Compound 9ek, 5-(4-((2-Chlorobenzyl)oxy)-2-methylphenyl)-4-(4-chlorophenyl)isoxazole-3-carboxylic acid], for which the IC50 at purified 5-LO [1] is above 30 µM. The remaining activity at 30 µM at purified 5-LO [2] turned out to be 51%. In assay [3], the IC50 was found to be 1.45 ± 0.09 µM, the activity at 1 µM stood at 54.9 ± 6.46% and the activity at 10 µM stood at 2.86 ± 2.59%.
On to `Cc1cc(OCc2ccccc2C(F)(F)F)ccc1-c1onc(C(=O)O)c1-c1ccc(Cl)cc1` [Compound 9fk, 4-(4-Chlorophenyl)-5-(2-methyl-4-((2-(trifluoromethyl)benzyl)oxy)phenyl)isoxazole-3-carboxylic acid], for which, at purified 5-LO [1], the IC50 is above 30 µM. In addition, the remaining activity at 30 µM on purified 5-LO [2] amounted to 62%. Also, in assay [3], the IC50 was 0.82 ± 0.17 µM, the activity at 1 µM is 44 ± 10.3% and the activity at 10 µM came out at 3.48 ± 3.05%.
Regarding `Cc1cc(OCc2ccccn2)ccc1-c1onc(C(=O)O)c1-c1ccc(Cl)cc1` [Compound 9gk, 4-(4-Chlorophenyl)-5-(2-methyl-4-(pyridin-2-ylmethoxy)phenyl)isoxazole-3-carboxylic acid], the IC50 at purified 5-LO [1] is above 30 µM. Further, the remaining activity at 30 µM at purified 5-LO [2] is 73%. For the same molecule, in assay [3], the IC50 is 1.81 ± 0.11 µM, the activity at 1 µM is 73.2 ± 7.42% and the activity at 10 µM is 0.45 ± 0.45%.
Consider `Cc1cc(OCc2ccc3ccccc3n2)ccc1-c1onc(C(=O)O)c1-c1ccc(Cl)cc1` [Compound 9hk, 4-(4-Chlorophenyl)-5-(2-methyl-4-(quinolin-2-ylmethoxy)phenyl)isoxazole-3-carboxylic acid], for which the IC50 on purified 5-LO [1] was above 30 µM. For the same molecule, on purified 5-LO [2], the remaining activity at 30 µM was found to be 75%. In assay [3], the IC50 worked out at 9.07 ± 1.98 µM, the activity at 1 µM was found to be 69.1 ± 5.53% and the activity at 10 µM turned out to be 44.2 ± 15.7%.
In the case of `Cc1ccccc1COc1ccc(-c2onc(C)c2-c2ccc(Cl)cc2)c(O)c1` [Compound A, reference compound], the IC50 on purified 5-LO [4] was 1.9 µM; at purified 5-LO [1], 1.9 ± 0.46 µM; in assay [5], 4.4 µM; in assay [3] it was 4.42 ± 1.13 µM. Further, in assay [3], the activity at 1 µM came out at 66.7 ± 11.5%. Moreover, the activity at 10 µM in assay [3] was determined as 3 ± 0.7%.

The record behind these values is patent publication EP2949653A1, “ISOXAZOLE DERIVATIVES AS LEUKOTRIENE BIOSYNTHESIS INHIBITORS” (Banoglu, Erden, priority 2014, dated 2015).
